Data reported in ChEMBL document CHEMBL1143211, “Inhibitors of proteases and amide hydrolases that employ an alpha-ketoheterocycle as a key enabling functionality” (Bioorg Med Chem, 2008).
Where a SMILES comes first, the peptide text is derived from it. [ ]: non-standard residue; d: D form. The star is where a group is joined. Nle = CCCC[C@H](N)C(=O)O; Bz = O=C(c1ccccc1)*

Assays:
[1] = Selectivity for human alpha-thrombin over bovine trypsin
[2] = Inhibition of bovine trypsin; parameters: species or system Bos taurus
Granzyme B = Granzyme B (Homo sapiens, UniProt P10144); test: Inhibition of granzyme B
[3] = Inhibition of human rhinovirus 14 3C protease; parameters: species or system rhinovirus B14
rhinovirus B14 = test: Antiviral activity against human rhinovirus 14; type: functional, organism-based; settings: Rhinovirus B
[4] = Inhibition of dengue virus NS3 protease
Cathepsin S = Cathepsin S (Homo sapiens, UniProt P25774); test: Inhibition of human recombinant cathepsin S
Cathepsin B = Cathepsin B (Homo sapiens, UniProt P07858); test: Inhibition of human liver cathepsin B
Cathepsin K = target: T1, Cathepsin K (Homo sapiens, UniProt P43235); test: Inhibition of human recombinant cathepsin K
T1 sequence (P43235 whole entry): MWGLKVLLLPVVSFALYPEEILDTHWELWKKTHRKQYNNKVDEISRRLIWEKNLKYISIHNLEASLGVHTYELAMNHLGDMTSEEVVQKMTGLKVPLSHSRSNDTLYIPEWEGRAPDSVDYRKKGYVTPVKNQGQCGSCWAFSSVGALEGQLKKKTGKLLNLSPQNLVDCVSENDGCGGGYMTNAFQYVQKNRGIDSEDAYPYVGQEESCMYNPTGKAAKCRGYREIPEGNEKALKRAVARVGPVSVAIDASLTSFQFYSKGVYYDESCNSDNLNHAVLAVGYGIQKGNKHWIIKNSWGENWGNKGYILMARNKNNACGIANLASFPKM

Procathepsin L = Procathepsin L (Homo sapiens, UniProt P07711); test: Inhibition of human recombinant cathepsin L
Hamster = test: Efficacy in po dosed hamster acute lung injury model; type: functional; settings: Cricetinae
Prothrombin = Prothrombin (Homo sapiens, UniProt P00734); test: Inhibition of human alpha-thrombin
Trypsin = Trypsin (Homo sapiens, UniProt P07477+P07478+P35030); test: Inhibition of human trypsin; type: protein assay
Homo sapiens = species: Homo sapiens; test: Selectivity for human alpha-thrombin over human trypsin
[5] = Inhibition of human beta-tryptase
[6] = target: T2, Fatty-acid amide hydrolase 1 (Rattus norvegicus, UniProt P97612)
T2 sequence (P97612 whole entry): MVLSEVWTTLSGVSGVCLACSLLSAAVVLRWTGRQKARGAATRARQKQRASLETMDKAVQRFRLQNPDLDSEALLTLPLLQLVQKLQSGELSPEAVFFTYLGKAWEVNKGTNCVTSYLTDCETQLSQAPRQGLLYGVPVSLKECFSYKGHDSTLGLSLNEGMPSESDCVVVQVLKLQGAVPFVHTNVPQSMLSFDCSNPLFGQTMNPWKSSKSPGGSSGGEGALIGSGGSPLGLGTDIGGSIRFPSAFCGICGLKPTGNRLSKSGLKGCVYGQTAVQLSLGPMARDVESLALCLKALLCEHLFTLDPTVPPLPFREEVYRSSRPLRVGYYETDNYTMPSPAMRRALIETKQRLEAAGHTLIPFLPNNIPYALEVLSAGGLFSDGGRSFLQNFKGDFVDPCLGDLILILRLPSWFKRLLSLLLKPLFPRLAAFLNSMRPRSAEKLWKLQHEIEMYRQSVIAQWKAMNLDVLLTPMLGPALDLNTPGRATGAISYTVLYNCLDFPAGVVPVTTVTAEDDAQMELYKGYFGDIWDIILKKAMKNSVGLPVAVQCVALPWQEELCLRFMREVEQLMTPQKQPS

[7] = Selectivity for rat FAAH over triacylglycerol hydrolase
Coagulation factor X = Coagulation factor X (Homo sapiens, UniProt P00742); test: Inhibition of human factor 10a
Plasma kallikrein = Plasma kallikrein (Homo sapiens, UniProt P03952); test: Inhibition of kallikrein
[8] = Oral bioavailability in rat; type: ADME, organism-based; settings: in vivo

Cathepsin S, sequence (P25774 whole entry): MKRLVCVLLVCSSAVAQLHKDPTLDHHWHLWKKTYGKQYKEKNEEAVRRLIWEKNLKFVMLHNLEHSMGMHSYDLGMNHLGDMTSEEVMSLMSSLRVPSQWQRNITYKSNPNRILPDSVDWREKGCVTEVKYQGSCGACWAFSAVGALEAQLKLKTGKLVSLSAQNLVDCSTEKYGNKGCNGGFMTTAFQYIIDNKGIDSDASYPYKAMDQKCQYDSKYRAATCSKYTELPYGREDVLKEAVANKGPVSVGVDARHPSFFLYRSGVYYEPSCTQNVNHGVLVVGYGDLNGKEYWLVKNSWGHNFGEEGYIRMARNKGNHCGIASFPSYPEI
Procathepsin L, sequence (P07711 whole entry): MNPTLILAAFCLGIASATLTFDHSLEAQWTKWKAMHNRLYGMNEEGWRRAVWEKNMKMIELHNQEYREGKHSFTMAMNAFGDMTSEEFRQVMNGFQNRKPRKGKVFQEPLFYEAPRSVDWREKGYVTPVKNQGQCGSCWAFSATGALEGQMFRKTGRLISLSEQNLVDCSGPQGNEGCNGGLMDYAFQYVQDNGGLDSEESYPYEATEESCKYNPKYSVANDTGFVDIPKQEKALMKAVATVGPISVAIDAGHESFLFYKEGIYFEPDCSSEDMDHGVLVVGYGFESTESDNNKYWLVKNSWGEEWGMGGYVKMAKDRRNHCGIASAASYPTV
Granzyme B, sequence (P10144 whole entry): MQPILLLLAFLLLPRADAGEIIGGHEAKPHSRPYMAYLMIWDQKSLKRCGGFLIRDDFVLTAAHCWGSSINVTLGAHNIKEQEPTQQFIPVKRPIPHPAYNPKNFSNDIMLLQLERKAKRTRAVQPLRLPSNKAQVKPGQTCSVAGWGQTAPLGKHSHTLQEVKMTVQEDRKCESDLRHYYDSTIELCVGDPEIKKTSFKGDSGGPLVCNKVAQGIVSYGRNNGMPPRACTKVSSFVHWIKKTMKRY
Plasma kallikrein, sequence (P03952 20-390 limits assumed): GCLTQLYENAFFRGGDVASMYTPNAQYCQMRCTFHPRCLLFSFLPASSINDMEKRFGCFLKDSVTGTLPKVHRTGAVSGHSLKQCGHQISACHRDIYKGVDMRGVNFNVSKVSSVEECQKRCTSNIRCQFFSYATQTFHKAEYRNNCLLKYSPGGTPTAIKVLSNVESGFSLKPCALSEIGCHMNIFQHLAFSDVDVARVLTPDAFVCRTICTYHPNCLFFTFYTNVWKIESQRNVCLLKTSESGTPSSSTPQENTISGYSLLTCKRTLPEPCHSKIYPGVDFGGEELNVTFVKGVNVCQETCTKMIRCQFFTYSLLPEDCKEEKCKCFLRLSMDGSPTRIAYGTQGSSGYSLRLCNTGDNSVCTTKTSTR
Plasma kallikrein, sequence (P03952 391-638 limits assumed): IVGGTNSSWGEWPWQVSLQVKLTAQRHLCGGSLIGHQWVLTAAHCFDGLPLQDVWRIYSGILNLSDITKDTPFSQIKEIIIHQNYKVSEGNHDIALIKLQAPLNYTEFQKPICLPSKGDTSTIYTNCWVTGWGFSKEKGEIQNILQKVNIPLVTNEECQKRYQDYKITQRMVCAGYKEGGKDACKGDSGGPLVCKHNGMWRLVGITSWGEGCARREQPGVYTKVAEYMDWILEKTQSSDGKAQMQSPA
Coagulation factor X, sequence (P00742 41-179 limits assumed): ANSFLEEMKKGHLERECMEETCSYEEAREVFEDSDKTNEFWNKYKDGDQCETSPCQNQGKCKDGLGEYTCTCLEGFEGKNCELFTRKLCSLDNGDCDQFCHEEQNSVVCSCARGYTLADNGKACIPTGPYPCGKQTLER
Coagulation factor X, sequence (P00742 235-488 limits assumed): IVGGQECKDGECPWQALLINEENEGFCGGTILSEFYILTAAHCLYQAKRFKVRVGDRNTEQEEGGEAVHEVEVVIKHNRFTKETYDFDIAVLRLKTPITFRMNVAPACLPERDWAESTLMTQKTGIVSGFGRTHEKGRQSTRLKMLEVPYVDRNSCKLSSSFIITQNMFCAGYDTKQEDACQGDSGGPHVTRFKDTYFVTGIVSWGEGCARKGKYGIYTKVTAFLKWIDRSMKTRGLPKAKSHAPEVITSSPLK

## CN[C@H](Cc1ccccc1)C(=O)N1CCC[C@H]1C(=O)N[C@@H](CCCN=C(N)N)C(=O)c1nccs1
[1]
  Ratio Ki: 10
[2]
  Ki: 0.0012 µM

## CC[C@H](C)[C@H](NC(C)=O)C(=O)N[C@H]1CCc2cccc3c2N(C1=O)[C@H](C(=O)N[C@@H](CC(=O)O)C(=O)c1nnc(-c2ccccc2)o1)C3
Granzyme B
  Ki: 0.007 µM

## Cc1cc(C(=O)N[C@H](C(=O)N[C@@H](Cc2ccc(F)cc2)C(=O)N[C@@H](C[C@@H]2CCNC2=O)C(=O)c2nc3ccccc3s2)C(C)C)no1
[3]
  Ki: 0.0045 µM
Rhinovirus B14
  EC50: 0.34 µM

## CCCC[C@H](NC(=O)c1ccccc1)C(=O)N[C@@H](CCCCN)C(=O)N[C@@H](CCCNC(=N)N)C(=O)N[C@H](C=O)CCCNC(=N)N (Bz-[Nle]KRR-aldehyde)
[4]
  Ki: 5.8 µM

## CC(C)C[C@H](NC(=O)C1CCNCC1)C(=O)N[C@@H](CCc1ccccc1)C(=O)c1nc2cc(S(N)(=O)=O)ccc2o1
Cathepsin S
  Ki: 0.04 µM
Cathepsin B
  Ki: 0.09 µM
Cathepsin K
  Ki: 0.04 µM
Procathepsin L
  Ki: 0.22 µM

## CN[C@H](Cc1ccccc1)C(=O)N1CCC[C@H]1C(=O)N[C@@H](CCCNC(=N)N)C(=O)c1cc2ccccc2s1
[1]
  Ratio Ki: 12000
[2]
  Ki: 1.3 µM

## CCCC[C@H](NC(=O)c1ccccc1)C(=O)N[C@@H](CCCCN)C(=O)N[C@@H](CCCNC(=N)N)C(=O)N[C@H](CCCNC(=N)N)B(O)O
[4]
  Ki: 0.043 µM

## CN[C@H](Cc1ccccc1)C(=O)N1CCC[C@H]1C(=O)N[C@@H](CCCNC(=N)N)C(=O)c1nc2ccccc2n1C
[2]
  Ki: 0.29 µM

## Cc1cccc(Cc2nnc(C(=O)[C@@H](NC(=O)Cn3c(-c4ccc(F)cc4)ncc(N)c3=O)C(C)C)o2)c1
Hamster
  ED50: 13 mg/kg

## N=C(N)N1CCC[C@@H](C[C@H](NC(=O)CN2C(=O)CN(CCCc3ccccc3)C(=O)[C@H]2Cc2ccccc2Cl)C(=O)c2nccs2)C1
Prothrombin
  Ki: 0.0012 µM
Trypsin
  IC50: 9.7 µM
Homo sapiens
  Ratio Ki: 500

## NCCCC[C@H](NC(=O)c1cc(F)cc(F)c1)C(=O)c1noc(Cc2ccc(C(=O)NCCc3cccc(Cl)c3)cc2)n1
Homo sapiens
  Selectivity ratio: 275
[5]
  Ki: 0.0015 µM

## CC(C)C[C@H](NC(=O)OCc1ccccc1)C(=O)N[C@@H](Cc1ccccc1)C(=O)N[C@@H](C[C@H]1CCNC1=O)C(=O)c1cc2ccccc2s1
[3]
  Ki: 4.7 µM
Rhinovirus B14
  EC50: > 10 µM

## CCCCCCCCCCCC(=O)c1nc2ncccc2o1
[6]
  Ki: 0.00057 µM
[7]
  Selectivity ratio: 100

## N=C(N)NCCC[C@H](NC(=O)CNC(=O)[C@@H](CCCNC(=N)N)NS(=O)(=O)CCc1ccccc1)C(=O)c1nc2ccccc2s1
Coagulation factor X
  IC50: 0.002 µM
Plasma kallikrein
  IC50: 0.029 µM

## CC(C)C[C@H](NC(=O)OCc1ccccc1)C(=O)N[C@@H](Cc1ccccc1)C(=O)N[C@@H](C[C@H]1CCNC1=O)C(=O)c1nc2ccccc2s1
[3]
  Ki: 0.065 µM
Rhinovirus B14
  EC50: 3.2 µM

## O=C(CCCCCCCCc1ccccc1)c1nnc(-c2ccccn2)o1
[7]
  Selectivity ratio: 600

## CC(C)C[C@H](NC(=O)OCc1ccccc1)C(=O)N[C@@H](Cc1ccccc1)C(=O)N[C@@H](C[C@H]1CCNC1=O)C(=O)c1nccs1
[3]
  Ki: 0.7 µM
Rhinovirus B14
  EC50: 7.9 µM

## CC(C)C[C@H](NC(=O)OCc1ccccc1)C(=O)N[C@@H](Cc1ccccc1)C(=O)N[C@@H](C[C@H]1CCNC1=O)C(=O)c1ccccn1
[3]
  Ki: 0.17 µM
Rhinovirus B14
  EC50: 4 µM

## CCCC[C@H](NC(=O)C(=O)[C@H](CC(C)C)NC(=O)OCc1ccccc1)C(=O)c1nnc(-c2ccco2)o1
Cathepsin S
  Ki: < 0.00025 µM
Cathepsin B
  Ki: 0.002 µM
Cathepsin K
  Ki: < 0.00025 µM
Procathepsin L
  Ki: 0.001 µM

## CCCC[C@H](NC(=O)CCc1ccccc1)C(=O)c1nnc(-c2ccco2)o1
Cathepsin S
  Ki: 26 µM
Cathepsin B
  Ki: 25 µM
Cathepsin K
  Ki: 9.6 µM
Procathepsin L
  Ki: 100 µM

## N=C(N)NCCC[C@H](NC(=O)[C@@H]1CCN2CC[C@@](N)(Cc3ccccc3)C(=O)N12)C(=O)c1nc2ccccc2s1
[8]
  bioavailability: 25%
Prothrombin
  Ki: 0.00065 µM

## CC(C)[C@H](NC(=O)Cn1c(-c2ccc(F)cc2)ncc(N)c1=O)C(=O)c1nnc(C(C)(C)c2ccccc2)o1
Hamster
  ED50: 10 mg/kg

## CCCC(F)(F)C[C@H](NC(=O)N1CCOCC1)C(=O)N[C@@H](CC)C(=O)c1nc(C2CC2)no1
Cathepsin S
  Ki: < 0.1 µM

## CC(C)C[C@H](NC(=O)C1CCNCC1)C(=O)N[C@@H](CCc1ccccc1)C(=O)c1nc2cc(C(C)(C)C)ccc2o1
Cathepsin S
  Ki: 0.03 µM
Cathepsin B
  Ki: 7 µM
Cathepsin K
  Ki: 0.0085 µM
Procathepsin L
  Ki: 0.07 µM
